Here are results for 16 compounds from patent US11759462B2, “Spirocyclic compounds as tryptophan hydroxylase inhibitors” (priority 2013, dated 2023).

Read-outs that look alike come from different tables or passages of the source.

The target in assay [1] is T1, Recombinant human TPH1 (MBP tagged) (Homo sapiens, UniProt P17752).
T1 construct: cloning full length human TPH1 cDNA in to a bacterial pMAL-c5E expression vector; made in house; host or cells: E. coli BL21 (DE3)
T1 sequence (P17752 1-444): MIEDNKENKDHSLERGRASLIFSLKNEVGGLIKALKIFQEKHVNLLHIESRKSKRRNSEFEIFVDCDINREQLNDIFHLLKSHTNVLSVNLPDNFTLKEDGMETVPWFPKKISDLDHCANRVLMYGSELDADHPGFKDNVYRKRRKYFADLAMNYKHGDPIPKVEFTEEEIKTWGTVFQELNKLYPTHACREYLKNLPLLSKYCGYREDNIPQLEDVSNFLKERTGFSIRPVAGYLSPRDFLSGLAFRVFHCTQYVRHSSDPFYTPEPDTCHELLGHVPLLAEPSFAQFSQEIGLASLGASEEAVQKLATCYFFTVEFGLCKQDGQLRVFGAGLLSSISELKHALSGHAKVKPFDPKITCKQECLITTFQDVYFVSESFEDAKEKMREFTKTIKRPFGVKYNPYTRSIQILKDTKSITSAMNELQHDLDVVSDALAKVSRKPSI
The experiment in a line: TPH1 in vitro inhibition assay (kinetic fluorescence). The assay is classed as biochemical. The method, boiled down: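 Final mix: 15 nM MBP-TPH1, 30 μM Trp, 36 μM 6-methyltetrahydropterin, 25 μM ferrous ammonium sulfate, 50 mM MES pH 7.1, 1% DMSO, room temperature.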

The subject of assay [2] is jejunal mucosal 5-HT in mice (C57 BL6). The experiment in a line: Intestinal 5-HT depletion assay (Example B, single 150 mg/kg oral dose). The assay is classed as in vivo, mouse. Conditions: one day after oral administration of a single 150 mg/kg dose, P-value class (ANOVA). The method, boiled down: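 C57 BL6 mice received one 150 mg/kg oral gavage dose; jejunal mucosa was homogenized in acidic trichloroacetic acid buffer and 5-HT measured by HPLC. Levels normalized to BCA protein, expressed as mean percent reduction versus vehicle ± SEM; ANOVA significance.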

For assay [3] the test system is unchanged. Put plainly: Reduction of mucosal 5-HT concentrations (Example C, repeated oral dosing). It counts as in vivo, mouse. The settings on record: after three oral doses (first 10 or 50 mg/kg, then two doses of 50 mg/kg) (title), P-value class. On the procedure: The efficacy of the TPH1 inhibitors of the invention was assessed for the ability to decrease intestinal serotonin concentration in mice. Mice (C57 BL6) were administered an oral dose of 10 or 50 mg/kg of the test article in the evening. […] Following an overnight fast, each animal was euthanized by exsanguination under isoflurane anesthesia. Jejunal intestinal mucosa was isolated and homogenized in […] of a buffer containing 0.3M trichloroacetic acid, 0.1M sodium acetate, 10 mM EDTA, 20 mM sodium bisulfate and 50 mM ascorbic acid. Following centrifugation the 5-HT levels in the supernatants were measured by HPLC. The remaining mucosal pellet was solubilized overnight at 37° C. in a 0.1% sodium dodecyl sulfate buffer in 0.1N NaOH followed by determination of protein concentrations using a BCA protein assay (Pierce, Rockford, Ill.). 5-HT levels were normalized to protein and data were expressed as mean percent reduction of mucosal 5-HT levels relative to vehicle control±SEM (percent 5-HT reduction). All animal studies were carried out with protocols approved by the Institutional Animal Care and Use Committee. P-values, indicating statistical significance of the data (ANOVA) are provided in the table: * refers to P<0.05,** refers to P<0.01, *** refers to P<0.005, and **** refers to P<0.0005.

[4] abbreviates: read-out: TPH1 Range (TPH1 inhibition IC50).

Consider `Nc1nc(O[C@H](c2ccc(-c3ccc4c(c3)CCNC4=O)cc2)C(F)(F)F)cc(N2CCC3(CC2)CN[C@H](C(=O)O)C3)n1` [Example 55bc, (S)-8-(2-amino-6-((R)-2,2,2-trifluoro-1-(4-(1-oxo-1,2,3,4-tetrahydroisoquinolin-6-yl)phenyl)ethoxy)pyrimidin-4-yl)-2,8-diazaspiro[4.5]decane-3-carboxylic acid], for which the IC50 in assay [1] (setting [4]) was below 50 nM. Moreover, the “Efficacy (statistical significance of reduction of mucosal 5-HT concentrations relative to vehicle)” value in assay [2] is “** (** refers to P<0.01)”.
Consider `Nc1nc(O[C@H](c2ccc(-c3ccc4cnccc4c3)cc2)C(F)(F)F)cc(N2CCC3(CC2)CN[C@H](C(=O)O)C3)n1` [Example 55bd, (S)-8-(2-amino-6-((R)-2,2,2-trifluoro-1-(4-(isoquinolin-6-yl)phenyl)ethoxy)pyrimidin-4-yl)-2,8-diazaspiro[4.5]decane-3-carboxylic acid], for which the IC50 in assay [1] (TPH1 Range (TPH1 inhibition IC50)) was below 50 nM. Besides, the “Efficacy (statistical significance of reduction of mucosal 5-HT concentrations relative to vehicle)” value in assay [2] is reported as “*** (*** refers to P<0.005)”.
`Nc1nc(O[C@H](c2ccc(-c3ccc4ncsc4c3)cc2)C(F)(F)F)cc(N2CCC3(CC2)CN[C@H](C(=O)O)C3)n1` [Example 55k, (S)-8-(2-amino-6-((R)-1-(4-(benzo[d]thiazol-6-yl)phenyl)-2,2,2-trifluoroethoxy)pyrimidin-4-yl)-2,8-diazaspiro[4.5]decane-3-carboxylic acid]: in assay [1] (setting [4]), the IC50 fell in the range of 50 to 300 nM. Besides, the “Efficacy (statistical significance of reduction of mucosal 5-HT concentrations relative to vehicle)” value in assay [2] is listed as “* (* refers to P<0.05)”.
With `CCOC(=O)[C@@H]1CC2(CCN(c3cc(O[C@H](c4cc(Cl)ccc4-c4cccc(S(C)(=O)=O)c4)C(F)(F)F)nc(N)n3)CC2)CN1` [Example 63ae, (S)-ethyl 8-(2-amino-6-((R)-1-(4-chloro-3′-(methylsulfonyl)-[1,1′-biphenyl]-2-yl)-2,2,2-trifluoroethoxy)pyrimidin-4-yl)-2,8-diazaspiro[4.5]decane-3-carboxylate], the “Efficacy (statistical significance of reduction of mucosal 5-HT concentrations relative to vehicle)” value in assay [3] is listed as “*** (*** refers to P<0.005)”.
Still for that read-out and setting: next, `CCOC(=O)[C@@H]1CC2(CCN(c3cc(O[C@H](c4ccc(Cl)cc4-c4cccc(C)c4)C(F)(F)F)nc(N)n3)CC2)CN1` [Example 63aq, (S)-ethyl 8-(2-amino-6-((R)-1-(5-chloro-3′-methyl-[1,1′-biphenyl]-2-yl)-2,2,2-trifluoroethoxy)pyrimidin-4-yl)-2,8-diazaspiro[4.5]decane-3-carboxylate]: “*** (*** refers to P<0.005)”; `CCOC(=O)[C@@H]1CC2(CCN(c3cc(O[C@H](c4ccc(Cl)cc4-c4cccc(C(F)(F)F)c4)C(F)(F)F)nc(N)n3)CC2)CN1` [Example 63ar, (S)-ethyl 8-(2-amino-6-((R)-1-(5-chloro-3′-(trifluoromethyl)-[1,1′-biphenyl]-2-yl)-2,2,2-trifluoroethoxy)pyrimidin-4-yl)-2,8-diazaspiro[4.5]decane-3-carboxylate]: “**** (**** refers to P<0.0005)”.
Same read-out and setting: as for `CCOC(=O)[C@@H]1CC2(CCN(c3cc(O[C@H](c4ccc(-c5ccc(Cl)c(Cl)c5)cc4-n4ccc(C)n4)C(F)(F)F)nc(N)n3)CC2)CN1` [Example 63aw, (S)-ethyl 8-(2-amino-6-((R)-1-(3′,4′-dichloro-3-(3-methyl-1H-pyrazol-1-yl)-[1,1′-biphenyl]-4-yl)-2,2,2-trifluoroethoxy)pyrimidin-4-yl)-2,8-diazaspiro[4.5]decane-3-carboxylate], the entry is “**** (**** refers to P<0.0005)”.
On the same count and under the same terms, next, `CCOC(=O)[C@@H]1CC2(CCN(c3cc(O[C@H](c4ccc(-c5ccc(OC(C)C)cc5)cc4-n4ccc(C)n4)C(F)(F)F)nc(N)n3)CC2)CN1` [Example 63cn, (S)-ethyl 8-(2-amino-6-((R)-2,2,2-trifluoro-1-(4′-isopropoxy-3-(3-methyl-1H-pyrazol-1-yl)-[1,1′-biphenyl]-4-yl)ethoxy)pyrimidin-4-yl)-2,8-diazaspiro[4.5]decane-3-carboxylate]: “**** (**** refers to P<0.0005)”; `CCOC(=O)[C@@H]1CC2(CCN(c3cc(O[C@H](c4ccc(Cl)cc4-c4cccc(C(C)(C)C)c4)C(F)(F)F)nc(N)n3)CC2)CN1` [Example 63el, (S)-ethyl 8-(2-amino-6-((R)-1-(3′-(tert-butyl)-5-chloro-[1,1 biphenyl]-2-yl)-2,2,2-trifluoroethoxy)pyrimidin-4-yl)-2,8-diazaspiro[4.5]decane-3-carboxylate]: “*** (*** refers to P<0.005)”.
Regarding `CCOC(=O)[C@@H]1CC2(CCN(c3cc(O[C@H](c4ccccc4-c4cccc(Cl)c4)C(F)(F)F)nc(N)n3)CC2)CN1` [Example 63eo, (S)-ethyl 8-(2-amino-6-((R)-1-(3′-chloro-[1,1′-biphenyl]-2-yl)-2,2,2-trifluoroethoxy)pyrimidin-4-yl)-2,8-diazaspiro[4.5]decane-3-carboxylate], the “Efficacy (statistical significance of reduction of mucosal 5-HT concentrations relative to vehicle)” value in assay [3] is recorded as “*** (*** refers to P<0.005)”.
In the case of `CCOC(=O)[C@@H]1CC2(CCN(c3cc(O[C@H](c4ccc(Cl)cc4-c4cccc(OC)c4)C(F)(F)F)nc(N)n3)CC2)CN1` [Example 63ep, (S)-ethyl 8-(2-amino-6-((R)-1-(5-chloro-3′-methoxy-[1,1′-biphenyl]-2-yl)-2,2,2-trifluoroethoxy)pyrimidin-4-yl)-2,8-diazaspiro[4.5]decane-3-carboxylate], the “Efficacy (statistical significance of reduction of mucosal 5-HT concentrations relative to vehicle)” value in assay [3] was “*** (*** refers to P<0.005)”.
Same read-out and setting: as for `CCOC(=O)[C@@H]1CC2(CCN(c3cc(O[C@H](c4ccc(Cl)cc4-c4cccc(F)c4)C(F)(F)F)nc(N)n3)CC2)CN1` [Example 63ev, (S)-ethyl 8-(2-amino-6-((R)-1-(5-chloro-3′-fluoro-[1,1′-biphenyl]-2-yl)-2,2,2-trifluoroethoxy)pyrimidin-4-yl)-2,8-diazaspiro[4.5]decane-3-carboxylate], the entry is “*** (*** refers to P<0.005)”.
For `CCOC(=O)[C@@H]1CC2(CCN(c3cc(O[C@H](c4ccc(Cl)cc4-c4cc(F)cc(F)c4)C(F)(F)F)nc(N)n3)CC2)CN1` [Example 63ey, (S)-ethyl 8-(2-amino-6-((R)-1-(5-chloro-3′,5′-difluoro-[1,1′-biphenyl]-2-yl)-2,2,2-trifluoroethoxy)pyrimidin-4-yl)-2,8-diazaspiro[4.5]decane-3-carboxylate], in assay [3], the “Efficacy (statistical significance of reduction of mucosal 5-HT concentrations relative to vehicle)” value is on record as “** (** refers to P<0.01)”.
The same measure, in the same setting: as for `CCOC(=O)[C@@H]1CC2(CCN(c3cc(O[C@H](c4ccc(Cl)cc4-c4cccnc4)C(F)(F)F)nc(N)n3)CC2)CN1` [Example 63fo, (S)-ethyl 8-(2-amino-6-((R)-1-(4-chloro-2-(pyridin-3-yl)phenyl)-2,2,2-trifluoroethoxy)pyrimidin-4-yl)-2,8-diazaspiro[4.5]decane-3-carboxylate], the entry is “* (* refers to P<0.05)”; as for `CCOC(=O)[C@@H]1CC2(CCN(c3cc(O[C@H](c4ccc(-c5ccc(OC)cc5)cc4-n4ccc(C)n4)C(F)(F)F)nc(N)n3)CC2)CN1` [Example 63ha, (S)-ethyl 8-(2-amino-6-((R)-2,2,2-trifluoro-1-(4′-methoxy-3-(3-methyl-1H-pyrazol-1-yl)-[1,1′-biphenyl]-4-yl)ethoxy)pyrimidin-4-yl)-2,8-diazaspiro[4.5]decane-3-carboxylate], “** (** refers to P<0.01)”.
“(3S)-8-(2-amino-6-(2,2,2-trifluoro-1-(3′-fluoro- [1,1′-biphenyl]-4-yl)ethoxy)pyrimidin-4-yl)-2,8- diazaspiro[4.5]decane-3-carboxylic acid [Example 55ak]”: the IC50 in assay [1] (setting [4]) was 300 to 3000 nM. Moreover, the “Efficacy (statistical significance of reduction of mucosal 5-HT concentrations relative to vehicle)” value in assay [2] is “** (** refers to P<0.01)”.
